Measured values from patent US6399568B1, “Cyclic tetrapeptide derivatives and medicinal use thereof” (Japan Energy Corporation, priority 1997, dated 2002).
pIC50: −log10 of the molar value. Non-standard residues stand in square brackets, D forms with d. Residues, ends and D or L forms follow the SMILES beside them. ξ: configuration not given here. *: point of attachment. d1Nal = N[C@H](Cc1cccc2ccccc12)C(=O)O; Asu = N[C@@H](CCCCCC(=O)O)C(=O)O; dTic = O=C(O)[C@H]1Cc2ccccc2CN1; Ile(3ξ) = CCC(C)[C@H](N)C(=O)O; Pip = O=C(O)[C@@H]1CCCCN1; dPip = O=C(O)[C@H]1CCCCN1; BrAc = O=C(CBr)*; Sar = CNCC(=O)O; For = O=C*; NHOH = ON*

How the values were obtained:
[1] = system: B16/BL6 cells; test: MHC class-I molecule expression promoting activity; format: cell-based, mouse; details: for conc. for 2-fold expression (nM) mean: mean of a plurality of assays; for MHC class-I molecule expression promoting activity: allowed to act on animal cells (summary statement)
Protocol: The cancer cells used were mouse melanoma cells, B16/BL6 cells, provided by, the National Cancer Institute, U.S.A. Said cells were cultivated in MEM media supplemented with 10% FBS at 37° C. in the presence of 5% carbon dioxide in an humidified incubator.
A compound to be tested was preliminarily dissolved in dimethyl sulfoxide (DMSO) and adjusted to a concentration of 100 mM or 10 mM (source solution).
Said B16/BL6 cells were inoculated on 96 well microplate at a cell density of 5000 cells per well, each well containing 200 μl of said medium. […] Thereafter, each well was once washed with PBS (phosphate buffered saline) and floating cells and the medium were removed. Then, the well was treated with 0.1% glutaraldehyde solution for 3 minutes to fix the cells.
The amount of MHC class-I molecule expressed on the surface of the fixed cells was measured by the following method. Anti-H-2K^bD^bD^d antibody, which is an antibody against mouse MHC classI molecule (commercially available from Meiji Milk Co., Ltd), was used as a primary antibody, biotinylated anti-mouse IgG+M (commercially available from Chemicon) was used as a secondary antibody, and streptavidin-β-galactosidase conjugate (commercially available from BRL) was reacted as a labelling enzyme. The amount of the thus labelled enzyme β-galactosidase was measured in a microplate reader by recording the fluorescent intensity (excitation: 365 nm, fluorescence: 450 nm) derived from the enzymaticreaction product using 4-methylumbelliferyl-β-D-galactoside (commercially available from Nacalai Tesque) as a substrate. […] The value obtained by subtracting said background level from the, actually measured value (an apparent value including the background level) was the true measurement reflecting the amount of expressed MHC class-I molecule.
A group without the addition of any compound to be tested was used as a reference group and the measurement of MHC class-I molecule expressed in said group was used as a standard value. The amount of MHC class-I molecule expressed at a concentration of addition of each test compound is shown as a relative amount, said standard value taken as one (1). For each compound to be tested, various concentrations of addition were selected to investigate the dependency of MHC class-I molecule expression promoting action on the concentration of addition.

[2] = biological target: histone deacetylase; test: Histone deacetylase enzyme inhibiting activity, synthetic peptide substrate; format: biochemical, mouse; details: enzyme from B16/BL6 cells; [3H]acetylated histone H4 peptide; 37° C. 3 hours
Protocol: The preparation of histone deacetylase was performed essentially according to the method of Yoshida et al. (J. Biol. Chem., 265,17174-17179, 1990). The enzyme to be used was partially purified from B16/BL6 cells. The cells were suspended in HDA buffer (15 mM potassium phosphate, 5% glycerol, 0.2 mM EDTA, […], pH 7.5), homogenized and centrifuged (2500×g, 10 min) to collect the nuclei, which in turn were homogenized in the same buffer containing 1 M (NH4)2SO4. After ultrasonic disruption and centrifugation, the concentration of (NH4)2SO4 in the collected supernatant was increased to 3.5 M to precipitate histone deacetylase. This precipitate was redissolved in HDA buffer, subjected to gel filtration to replace the solvent with HDA buffer, and used as a crude histone deacetylase enzyme solution.
As a substrate, a synthetic substrate peptide, [^3H]acetylated histone H4 peptide was used. This [^3H]acetylated histone H4 peptide was obtained by synthesizing the N-terminal peptide of histone H4; […] (the C-terminal being cysteine) and radio-acetylating with ^3H -acetic anhydride.
An assay was performed by incubating the synthetic substrate solution and the enzyme solution at 37° C. for 3 hours in the presence of a compound to be tested (reaction volume, 100 μl). The reaction was stopped by adding 25 μl of 1 M HCl and 0.2 M acetic acid and [^3H]acetate excised by the enzyme reaction was extracted with ethyl acetate for radioactivity measurement. As a control group, the same procedure was repeated without addition of any test compound to the reaction system. The inhibiting activity was expressed by a concentration at which the histone deacetylase enzyme activity in the control group was inhibited by 50% (50% inhibiting concentration).

## O=C(O)c1cccnc1 [nicotinic acid, reference compound]
[1]; 72 hours
  conc. for 2-fold expression (nM) mean: >1000000 nM

## O=C(CCCCC[C@@H]1NC(=O)[C@@H]2CCCN2C(=O)[C@H](Cc2ccccc2)NC(=O)[C@@H](Cc2ccccc2)NC1=O)NO [HDA-38, cyclo(-L-Asu(NHOH)-D-Phe-L-Phe-L-Pro-)] (cyclo([Asu](NHOH)[dF]FP))
[1]; 72 hours
  conc. for 2-fold expression (nM) mean: 558 nM
[2]
  pIC50: 8.27

## NC(=O)c1cccnc1 [nicotinamide, reference compound]
[1]; 72 hours
  conc. for 2-fold expression (nM) mean: >1000000 nM

## O=C(CCCCC[C@@H]1NC(=O)[C@@H]2CCCN2C(=O)[C@@H](Cc2ccccc2)NC(=O)[C@H](Cc2ccccc2)NC1=O)NO [HDA-39, cyclo(-L-Asu(NHOH)-L-Phe-D-Phe-L-Pro-)] (cyclo([Asu](NHOH)F[dF]P))
[1]; 72 hours
  conc. for 2-fold expression (nM) mean: 65800 nM
[2]
  pIC50: 6.65

## O=C(CCCCC[C@@H]1NC(=O)[C@@H](Cc2ccccc2)NC(=O)[C@H](Cc2ccccc2)NC(=O)[C@H]2CCCN2C1=O)NO [HDA-37, cyclo(-L-Asu(NHOH)-D-Pro-L-Phe-D-Phe-)] (cyclo([Asu](NHOH)[dP]F[dF]))
[1]; 72 hours
  conc. for 2-fold expression (nM) mean: 320 nM
[2]
  pIC50: 8.04

## CN1CC(=O)N[C@@H](CCCCCC(=O)NO)C(=O)N[C@@H](Cc2ccccc2)C(=O)N[C@@H](Cc2ccccc2)C1=O [HDA-40, cyclo(-L-Asu(NHOH)-L-Phe-L-Phe-Sar-)] (cyclo([Asu](NHOH)FF[Sar]))
[1]; 72 hours
  conc. for 2-fold expression (nM) mean: 748 nM

## CCCC(=O)O [butyric acid, reference compound]
[1]
  MHC class-I molecule expression promoting activity: exhibit the MHC class-I molecule expression promoting activity

## CCC(C)[C@@H]1NC(=O)[C@@H](Cc2ccc3ccc4cccc5ccc2c3c45)NC(=O)[C@H](CCCCCC(=O)NO)NC(=O)[C@H]2CCCN2C1=O (stereo partly drawn) [HDA-48, cyclo(-L-Asu(NHOH)-D-Pya-L-Ile-D-Pro-)]
[1]; 72 hours
  conc. for 2-fold expression (nM) mean: 0.846 nM

## CC(=O)NC(CCCCCC(=O)NO)C(=O)NCc1ccccc1 (centres unmarked) [Ac-Asu(NHOH)-NH-Bzl, reference compound]
[1]; 72 hours
  conc. for 2-fold expression (nM) mean: 2410 nM

## CC(C)C[C@@H]1NC(=O)[C@H](Cc2cn(C=O)c3ccccc23)NC(=O)[C@H](CCCCCC(=O)NO)NC(=O)[C@H]2CCCCN2C1=O [HDA-16, cyclo(-L-Asu(NHOH)-L-Trp(CHO)-L-Leu-D-Pip-)] (cyclo([Asu](NHOH)W(For)L[dPip]))
[1]; 72 hours
  conc. for 2-fold expression (nM) mean: toxic

## O=C(NO)c1ccccc1 [benzohydroxamic acid, reference compound]
[1]; 72 hours
  conc. for 2-fold expression (nM) mean: 35800 nM

## cyclo (-L-Lys(Ac)L-Phe-L-Phe-D-Pro-)2 [HDA-7, reference compound]
[1]; 72 hours
  conc. for 2-fold expression (nM) mean: 75000 nM

## C[C@@H]1NC(=O)[C@@H](Cc2ccccc2)NC(=O)[C@H](CCCCCC(=O)NO)NC(=O)[C@H]2CCCN2C1=O [HDA-45, cyclo(-L-Asu(NHOH)-D-Phe-L-Ala-D-Pro-)] (cyclo(A[dP][Asu](NHOH)[dF]))
[1]; 72 hours
  conc. for 2-fold expression (nM) mean: 23.1 nM

## O=C(NO)c1cccnc1 [nicotinic acid hydroxamate, reference compound]
[1]; 72 hours
  conc. for 2-fold expression (nM) mean: 28000 nM

## CCC(C)[C@@H]1NC(=O)[C@@H](Cc2cccc3ccccc23)NC(=O)[C@H](CCCCCC(=O)NO)NC(=O)[C@H]2CCCN2C1=O (stereo partly drawn) [HDA-47, cyclo(-L-Asu(NHOH)-D-Naf-L-Ile-D-Pro-)] (cyclo([Asu](NHOH)[d1Nal][Ile(3ξ)][dP]))
[1]; 72 hours
  conc. for 2-fold expression (nM) mean: 9.59 nM

## CCC(C)[C@@H]1NC(=O)[C@@H](Cc2ccc(OC)cc2)NC(=O)[C@H](CCCCCCC(=O)NO)NC(=O)[C@H]2CCCN2C1=O (stereo partly drawn) [HDA-43, cyclo(-L-Aaz(NHOH)-D-Tyr(Me)-L-Ile-D-Pro-)]
[1]; 72 hours
  conc. for 2-fold expression (nM) mean: 155 nM
[2]
  pIC50: 7.47

## O=C(O)c1ccccc1 [benzoic acid, reference compound]
[1]; 72 hours
  conc. for 2-fold expression (nM) mean: >200000 nM

## CC(C)C[C@@H]1NC(=O)[C@H](Cc2c[nH]c3ccccc23)NC(=O)[C@H](CCCCCC(=O)NO)NC(=O)[C@H]2CCCCN2C1=O [HDA-33, cyclo(-L-Asu(NHOH)-L-Trp-L-Leu-D-Pip-)] (cyclo([Asu](NHOH)WL[dPip]))
[1]; 72 hours
  conc. for 2-fold expression (nM) mean: weak

## O=C(CBr)NCCCC[C@@H]1NC(=O)[C@H]2CCCN2C(=O)[C@H](Cc2ccccc2)NC(=O)[C@H](Cc2ccccc2)NC1=O [HDA-26, cyclo(-L-Lys(BrAc)-L-Phe-L-Phe-D-Pro-)] (cyclo(FF[dP]K(BrAc)))
[1]; 72 hours
  conc. for 2-fold expression (nM) mean: 5660 nM

## CC[C@H](C)[C@@H]1NC(=O)[C@@H](Cc2ccc(OC)cc2)NC(=O)[C@H](CCCCCC(=O)NO)NC(=O)[C@H]2Cc3ccccc3CN2C1=O [HDA-52, cyclo(-L-Asu(NHOH)-D-Tyr(Me)-L-Ile-D-Tic-)] (cyclo([Asu](NHOH)[dY](Me)I[dTic]))
[1]; 72 hours
  conc. for 2-fold expression (nM) mean: 0.191 nM
[2]
  pIC50: 8.36

## cyclo(-Asu(NHOH)-D-Phe-Phe-Sar-) [CHAP41]
[1]; 72 hours
  conc. for 2-fold expression (nM) mean: 24.5 nM

## O=C(CCCCCc1ccccc1)NO [Ph-(CH2)5-CONHOH, reference compound]
[1]; 72 hours
  conc. for 2-fold expression (nM) mean: 11400 nM

## CC(C)C[C@@H]1NC(=O)[C@@H](Cc2ccccc2)NC(=O)[C@H](CCCCCC(=O)NO)NC(=O)[C@@H]2CCCCN2C1=O [HDA-53, cyclo(-L-Asu(NHOH)-D-Phe-L-Leu-L-Pip-)] (cyclo([Asu](NHOH)[dF]L[Pip]))
[1]; 72 hours
  conc. for 2-fold expression (nM) mean: 19.8 nM

## cyclo(-Asu(NHOH)-Phe-Phe-D-Pro-)2 [HDA-19, reference compound]
[1]; FIGS. 3 and 4, dependence on concentration of addition
  MHC class-I molecule expression promoting action: low MHC class-I molecule expression promoting action was observed only at a high concentration of addition
[1]; concentration at which MHC class-I expression is twice that without addition, 72 hours
  Twice Promoting Concentration Cx2: >40 µM
[1]; 72 hours
  conc. for 2-fold expression (nM) mean: weak

## CCC(C)[C@@H]1NC(=O)[C@@H](Cc2ccccc2)NC(=O)[C@H](CCCCCC(=O)NO)NC(=O)[C@H]2CCCN2C1=O (stereo partly drawn) [HDA-46, cyclo(-L-Asu(NHOH)-D-Phe-L-Ile-D-Pro-)] (cyclo([Asu](NHOH)[dF][Ile(3ξ)][dP]))
[1]; 72 hours
  conc. for 2-fold expression (nM) mean: 1.96 nM

## COc1ccc(C[C@H]2NC(=O)[C@H](CCCCCC(=O)NO)NC(=O)[C@H]3CCCN3C(=O)[C@H](C)NC2=O)cc1 [HDA-44, cyclo(-L-Asu(NHOH)-D-Tyr(Me)-L-Ala-D-Pro-)] (cyclo(A[dP][Asu](NHOH)[dY](Me)))
[1]; 72 hours
  conc. for 2-fold expression (nM) mean: 35.00 nM

## CC(/C=C/C(=O)NO[C@@H]1O[C@H](CO)[C@@H](O)[C@H](O)[C@H]1O)=C\[C@@H](C)C(=O)c1ccc(N(C)C)cc1 [trichostatin C, reference compound]
[1]
  MHC class-I molecule expression promoting activity: promotes the expression of MHC class-I molecule
[1]; 72 hours
  conc. for 2-fold expression (nM) mean: 6.88 nM

## cyclo(-L-Asu(NHOH)-D-Tyr(Me)-L-Ile-L-Pro-)2 [HDA-14, reference compound]
[1]; 72 hours
  conc. for 2-fold expression (nM) mean: >10000 nM

## CCC(C)[C@@H]1NC(=O)[C@@H](Cc2ccc(OC)cc2)NC(=O)[C@H](CCCCC(=O)NO)NC(=O)[C@H]2CCCN2C1=O (stereo partly drawn) [HDA-42, cyclo(-L-Api(NHOH)-D-Tyr(Me)-L-Ile-D-Pro-)]
[1]; 72 hours
  conc. for 2-fold expression (nM) mean: 512 nM
[2]
  pIC50: 7.27
